biological target: T1, p53 Y220C (Homo sapiens, UniProt P04637, Y220C); assay: In vitro DNA binding activity assay (HTRF / TR-FRET): stabilization of p53 Y220C and increase of its DNA binding activity; assay type: biochemical; details: recombinant His-tagged p53 Y220C DNA binding domain (aa 94-312), biotin-labeled consensus DNA, incubated at 27° C. or 29° C. for 60 min
T1 construct: The recombinant protein was a truncation mutant containing only amino acids 94-312 of p53; made in house; host or cells: E. coli
T1 sequence (P04637 94-312, change not shown): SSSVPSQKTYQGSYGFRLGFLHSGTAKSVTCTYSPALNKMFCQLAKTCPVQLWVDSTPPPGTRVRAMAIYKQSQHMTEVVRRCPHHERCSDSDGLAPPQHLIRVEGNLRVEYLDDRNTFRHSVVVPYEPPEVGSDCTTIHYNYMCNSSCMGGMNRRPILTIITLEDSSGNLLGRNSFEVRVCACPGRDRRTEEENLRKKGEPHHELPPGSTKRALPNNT
In short: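 E. coli His-p53 Y220C + biotin consensus DNA; anti-His-APC/SA-Eu TR-FRET. SC150 vs no-compound.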

Row | Structure (SMILES) | SC150 (concentration of the compound required to increase the DNA binding activity by 50%)
1 | CS(=O)(=O)c1ccc(NCC#Cc2cc3c(NC4CCOCC4)cccc3n2CC(F)(F)F)c(O)c1 [Compound 1009A, 5-methanesulfonyl-2-[(3-{4-[(oxan-4-yl)amino]-1-(2,2,2-trifluoroethyl)-1H-indol-2-yl}prop-2-yn-1-yl)amino]phenol] | + (+ = 0 μM ≤ SC150 < 0.05 μM)
2 | COc1cc(S(N)(=O)=O)ccc1NCC#Cc1cc2c(NC3CCN(C(=O)CO)CC3)cccc2n1CC(F)(F)F [Compound 748A] | + (+ = 0 μM ≤ SC150 < 0.05 μM)
3 | COc1cc(S(=O)(=O)Nc2ccon2)ccc1NCC#Cc1cc2c(NC3CCN(C)CC3)cccc2n1CC(F)(F)F [Compound 469A, 3-methoxy-4-[(3-{4-[(1-methylpiperidin-4-yl)amino]-1-(2,2,2-trifluoroethyl)-1H-indol-2-yl}prop-2-yn-1-yl)amino]-N-(1,2-oxazol-3-yl)benzene-1-sulfonamide] | + (+ = 0 μM ≤ SC150 < 0.05 μM)
4 | CNS(=O)(=O)c1ccc(NCC#Cc2cc3c(NC4CCN(CC(O)COC)CC4)cccc3n2CC(F)(F)F)c(OC)c1 (centres unmarked) [Compound 609A] | + (+ = 0 μM ≤ SC150 < 0.05 μM)
5 | COc1cc(S(C)(=O)=O)ccc1NCC#Cc1cc2c(N[C@H]3CCN(CC(=O)NCCN(Cc4ccccn4)Cc4ccccn4)C[C@H]3F)cccc2n1CC(F)(F)F (racemic) [Compound 891A, rac-N-(2-{bis[(pyridin-2-yl)methyl]amino}ethyl)-2-[(3R,4S)-3-fluoro-4-[(2-{3-[(4-methanesulfonyl-2-methoxyphenyl)amino]prop-1-yn-1-yl}-1-(2,2,2-trifluoroethyl)-1H-indol-4-yl)amino]piperidin-1-yl]acetamide] | + (+ = 0 μM ≤ SC150 < 0.05 μM)
6 | COc1cc(C(=O)N2CCC(N(C)C)CC2)ccc1NCC#Cc1cc2c(N[C@@H]3CCN(C)C[C@@H]3F)cccc2n1CC(F)(F)F [Compound 933A, 2-[3-({4-[4-(dimethylamino)piperidine-1-carbonyl]-2-methoxyphenyl}amino)prop-1-yn-1-yl]-N-[(3S,4R)-3-fluoro-1-methylpiperidin-4-yl]-1-(2,2,2-trifluoroethyl)-1H-indol-4-amine] | + (+ = 0 μM ≤ SC150 < 0.05 μM)
7 | COc1cc(S(C)(=O)=O)ccc1NCC#Cc1cc2c(N[C@H]3CCOC[C@H]3F)cccc2n1CC(F)(F)F (racemic) [Compound 1022A, rac-N-[(3R,4R)-3-fluorooxan-4-yl]-2-{3-[(4-methanesulfonyl-2-methoxyphenyl)amino]prop-1-yn-1-yl}-1-(2,2,2-trifluoroethyl)-1H-indol-4-amine] | + (+ = 0 μM ≤ SC150 < 0.05 μM)
8 | CNC(=O)c1ccc(NCC#Cc2cc3c(N[C@@H]4CCN(C)C[C@@H]4F)cccc3n2CC(F)(F)F)c(O)c1 [Compound 1058A, 4-{[3-(4-{[(3S,4R)-3-fluoro-1-methylpiperidin-4-yl]amino}-1-(2,2,2-trifluoroethyl)-1H-indol-2-yl)prop-2-yn-1-yl]amino}-3-hydroxy-N-methylbenzamide] | + (+ = 0 μM ≤ SC150 < 0.05 μM)
9 | COc1cc(C(=O)N2CCN(C)CC2)ccc1NCC#Cc1cc2c(NC3CCN(C)CC3)cccc2n1CC(F)(F)F [Compound 501A, 2-(3-{[2-methoxy-4-(4-methylpiperazine-1-carbonyl)phenyl]amino}prop-1-yn-1-yl)-N-(1-methylpiperidin-4-yl)-1-(2,2,2-trifluoroethyl)-1H-indol-4-amine] | + (+ = 0 μM ≤ SC150 < 0.05 μM)
10 | COc1cc(S(C)(=O)=O)ccc1NCC#Cc1cc2c(NC3CCN(CCC#N)CC3)cccc2n1CC(F)(F)F [Compound 686A] | + (+ = 0 μM ≤ SC150 < 0.05 μM)

The remaining lines, values ahead:

Row | SC150 (concentration of the compound required to increase the DNA binding activity by 50%) | Structure (SMILES)
11 | + (+ = 0 μM ≤ SC150 < 0.05 μM) | COc1cc(S(=O)(=O)N2CCOCC2)ccc1NCC#Cc1cc2c(N[C@H]3CC[C@@H](N(C)C)CC3)cccc2n1CC(F)(F)F [Compound 68A, (1S,4S)-N4-[2-(3-{[2-methoxy-4-(morpholine-4-sulfonyl)phenyl]amino}prop-1-yn-1-yl)-1-(2,2,2-trifluoro-ethyl)-1H-indol-4-yl]-N^1,N^1-dimethyl-cyclohexane-1,4-diamine]
12 | + (+ = 0 μM ≤ SC150 < 0.05 μM) | COc1cc(S(N)(=O)=O)ccc1NCC#Cc1cc2c(N[C@H]3CC[C@H](N4CC5COCC5C4)CC3)cccc2n1CC(F)(F)F (stereo partly drawn) [Compound 430A, 3-methoxy-4-{[3-(4-{[(1R,4R)-4-{hexahydro-1H-furo[3,4-c]pyrrol-5-yl}cyclohexyl]amino}-1-(2,2,2-trifluoroethyl)-1H-indol-2-yl)prop-2-yn-1-yl]amino}benzene-1-sulfonamide]
13 | + (+ = 0 μM ≤ SC150 < 0.05 μM) | CCOc1cc(S(C)(=O)=O)ccc1NCC#Cc1cc2c(N[C@H]3CC[C@H](N4CCC5(CC4)COC5)CC3)cccc2n1CC(F)(F)F [Compound 393A, N-((1R,4R)-4-(2-oxa-7-azaspiro[3.5]nonan-7-yl)cyclohexyl)-2-(3-((2-ethoxy-4-(methylsulfonyl)phenyl)amino)prop-1-yn-1-yl)-1-(2,2,2-trifluoroethyl)-1H-indol-4-amine]
14 | + (+ = 0 μM ≤ SC150 < 0.05 μM) | CNC(=O)c1ccc(NCC#Cc2cc3c(N[C@H]4CC[C@H](N5CCOCC5)CC4)cccc3n2CC(F)(F)F)c(OC)c1 [Compound 172A, 3-methoxy-N-methyl-4-{[3-(4-{[(1R,4R)-4-(morpholin-4-yl)cyclohexyl]amino}-1-(2,2,2-trifluoroethyl)-1H-indol-2-yl)prop-2-yn-1-yl]amino}benzamide]
15 | + (+ = 0 μM ≤ SC150 < 0.05 μM) | COc1cc(C(N)=O)ccc1NCC#Cc1cc2c(N[C@H]3CC[C@H](N4CC5(COC5)C4)CC3)cccc2n1CC(F)(F)F [Compound 212A, 3-methoxy-4-{[3-(4-{[(1R,4R)-4-{2-oxa-6-azaspiro[3.3]heptan-6-yl}cyclohexyl]amino}-1-(2,2,2-trifluoroethyl)-1H-indol-2-yl)prop-2-yn-1-yl]amino}benzamide]
16 | + (+ = 0 μM ≤ SC150 < 0.05 μM) | CNC(=O)c1ccc(NCC#Cc2cc3c(N[C@H]4CC[C@@H](N5CC6(COC6)C5)CC4)cccc3n2CC(F)(F)F)c(OCCF)c1 [Compound 241A, 3-(2-fluoroethoxy)-N-methyl-4-{[3-(4-{[(1S,4S)-4-{2-oxa-6-azaspiro[3.3]heptan-6-yl}cyclohexyl]amino}-1-(2,2,2-trifluoroethyl)-1H-indol-2-yl)prop-2-yn-1-yl]amino}benzamide]
17 | + (+ = 0 μM ≤ SC150 < 0.05 μM) | CNC(=O)c1ccc(NCC#Cc2cc3c(N[C@H]4CC[C@H](N5CC6(COC6)C5)CC4)cccc3n2CC(F)(F)F)c(OCCF)c1 [Compound 240A, 3-(2-fluoroethoxy)-N-methyl-4-{[3-(4-{[(1R,4R)-4-{2-oxa-6-azaspiro[3.3]heptan-6-yl}cyclohexyl]amino}-1-(2,2,2-trifluoroethyl)-1H-indol-2-yl)prop-2-yn-1-yl]amino}benzamide]

— patent US12428406B2 (PMV Pharmaceuticals, Inc., priority 2019, dated 2025)
